Test results reported in ChEMBL document CHEMBL6134890, “Terminally Symmetric β-Turn Peptides for Multidrug-Resistant Bacterial Infections” (J Med Chem, 2025).
Converted amounts (≈) assume the structure as drawn. The source made the active and inactive calls. The calls are words filed in the database; no cut-off is given here.

Assays:
Staphylococcus aureus [1] = assay: Antimicrobial activity against Staphylococcus aureus ATCC 25923 assessed as reduction in bacterial growth by broth dilution method; format: functional
Staphylococcus aureus [2] = assay: Antimicrobial activity against multi-drug resistant Staphylococcus aureus assessed as reduction in bacterial growth by broth dilution method; format: functional
Escherichia coli [3] = assay: Antimicrobial activity against multi-drug resistant Escherichia coli assessed as reduction in bacterial growth by broth dilution method; format: functional
Escherichia coli [4] = assay: Antimicrobial activity against Escherichia coli ATCC 25922 assessed as reduction in bacterial growth by broth dilution method; format: functional
Escherichia coli [5] = assay: Antibacterial activity against Escherichia coli ATCC 25922 infected in male Kunming mouse model assessed as reduction in bacterial load measured after 11 days; format: functional, organism-based; settings: time 11.0 day
Escherichia coli [6] = assay: Antibacterial activity against multidrug resistant Escherichia coli infected in male Kunming mouse model assessed as reduction in tissue hemorrhage by H and E staining based analysis; format: functional, organism-based
Enterococcus faecalis = assay: Antimicrobial activity against multi-drug resistant Enterococcus faecalis assessed as reduction in bacterial growth by broth dilution method; format: functional
Escherichia coli [7] = assay: Antibacterial activity against multidrug resistant Escherichia coli infected in male Kunming mouse model assessed as scabs thickening measured after 7 days by caliper method; format: functional, organism-based; settings: time 7.0 day
Escherichia coli [8] = assay: Antibacterial activity against multidrug resistant Escherichia coli infected in male Kunming mouse model assessed as wound healing measured after 11 days by caliper method; format: functional, organism-based; settings: time 11.0 day
Escherichia coli [9] = assay: Antibacterial activity against multidrug resistant Escherichia coli infected in male Kunming mouse model assessed as inflammatory cell infiltration by H and E staining based analysis; format: functional, organism-based
Escherichia coli [10] = assay: Antibacterial activity against multidrug resistant Escherichia coli infected in male Kunming mouse model assessed as reduction in IL-6 expression by immunochemical analysis; format: functional, organism-based
Escherichia coli [11] = assay: Antibacterial activity against multidrug resistant Escherichia coli infected in male Kunming mouse model assessed as reduction in wound size measured after 3 to 5 days by caliper method; format: functional, organism-based; settings: time 3-5 day
Escherichia coli [12] = assay: Antibacterial activity against multidrug resistant Escherichia coli infected in male Kunming mouse model assessed as reduction in epidermal thickening by H and E staining based analysis; format: functional, organism-based
[13] = system: Staphylococcus epidermidis; assay: Antimicrobial activity against multi-drug resistant Staphylococcus epidermidis assessed as reduction in bacterial growth by broth dilution method; format: functional
Escherichia coli [14] = assay: Antibacterial activity against multidrug resistant Escherichia coli infected in male Kunming mouse model assessed as recovery of mouse weight measured after 11 days; format: functional, organism-based; settings: time 11.0 day
Klebsiella pneumoniae = assay: Antimicrobial activity against multi-drug resistant Klebsiella pneumoniae assessed as reduction in bacterial growth by broth dilution method; format: functional
Acinetobacter baumannii = assay: Antimicrobial activity against multi-drug resistant Acinetobacter baumannii assessed as reduction in bacterial growth by broth dilution method; format: functional
[15] = Hemolytic activity in human Red blood cell assessed as hemolysis incubated for 1 hrs by microplate reader based analysis; format: toxicity; settings: erythrocyte
HEK-293T = assay: Cytotoxicity against HEK293T cells at 256 uM measured after 24 hrs by CCK-8 method relative to control; format: toxicity, cell-based; settings: human
L02 = assay: Cytotoxicity against human LO2 cells at 256 uM measured after 24 hrs by CCK-8 method relative to control; format: toxicity, cell-based; settings: l02, 24 h

SMILES | MIC (Staphylococcus aureus [1]) | MIC (Staphylococcus aureus [2]) | MIC (Escherichia coli [3]) | MIC (Escherichia coli [4]) | Activity (Escherichia coli [5]) | Activity (Escherichia coli [6]) | MIC (Enterococcus faecalis) | Activity (Escherichia coli [7]) | Activity (Escherichia coli [8]) | Activity (Escherichia coli [9]) | Activity (Escherichia coli [10]) | Activity (Escherichia coli [11]) | Activity (Escherichia coli [12]) | MIC [13] | Activity (Escherichia coli [14]) | MIC (Klebsiella pneumoniae) | MIC (Acinetobacter baumannii) | HC10 [15] | Activity (HEK-293T) | Activity (L02)
C[C@H]1COc2c(N3CCN(C)CC3)c(F)cc3c(=O)c(C(=O)O)cn1c23 [LEVOFLOXACIN ANHYDROUS] | 0.25 µM (≈ 0.0903 µg/mL) | 0.25 µM (≈ 0.0903 µg/mL) | 64 µM (≈ 23.1 µg/mL) | 2 µM (≈ 0.723 µg/mL) | Active | inactive | 32 µM (≈ 11.6 µg/mL) | Active | inactive | inactive | inactive | Active | inactive | 8 µM (≈ 2.89 µg/mL) | Active | 64 µM (≈ 23.1 µg/mL) | > 256 µM | – | – | –
CN[C@H](CC(C)C)C(=O)N[C@H]1C(=O)N[C@@H](CC(N)=O)C(=O)N[C@H]2C(=O)N[C@H]3C(=O)N[C@H](C(=O)N[C@H](C(=O)O)c4cc(O)cc(O)c4-c4cc3ccc4O)[C@H](O)c3ccc(c(Cl)c3)Oc3cc2cc(c3O[C@@H]2O[C@H](CO)[C@@H](O)[C@H](O)[C@H]2O[C@H]2C[C@](C)(N)[C@H](O)[C@H](C)O2)Oc2ccc(cc2Cl)[C@H]1O [VANCOMYCIN] | 1 µM (≈ 1.45 µg/mL) | 1 µM (≈ 1.45 µg/mL) | > 256 µM | 256 µM (≈ 371 µg/mL) | – | – | > 256 µM | – | – | – | – | – | – | 2 µM (≈ 2.9 µg/mL) | – | > 256 µM | > 256 µM | > 256 µM | 75% | 75%
